d = 2'-deoxy (DNA); r = 2'-OH (RNA)
Assays:
[1] = tested on: PGC-1α gene expression in 3T3-L1 cells; test: Expression analysis of PGC-1α gene and the like by quantitative real-time PCR; assay type: cell-based, mouse; conditions: standardized against 36B4, versus control siRNA or vehicle
Method: (2) Expression Analysis of PGC-1α gene and the Like by Quantitative Real-time PCR (FIG. 2)
Total RNA was extracted using Trizol reagent (Invitrogen). Quantitative RT-PCR was carried out using Fast SYBR Green System (Applied Biosciences). […] The value is given as a multiple of induction to a sample into which control siRNA has been introduced or a sample treated with a vehicle. Statistical significant difference is indicated by *p<0.05, **p<0.01, with respect to control (the same applies below). The following primers were used.

[2] = tested on: LSD1 target genes in 3T3-L1 cells; test: Comprehensive analysis of LSD1 target genes in 3T3-L1 cells using microarray; assay type: cell-based, mouse; conditions: for expression of the LSD1 target candidates (microarray): tranylcypromine 10^−4 M
Method: (1) Comprehensive Analysis of LSD1 Target Genes in 3T3-L1 Cells, Using Microarray (FIG. 1)
An adipogenesis induction medium was prepared by dissolving […] 3-isobutyl-1-methylxanthine, 1 μM dexamethasone and 5 μg/ml insulin in a Dulbecco's modified Eagle's medium containing 10% fetal bovine serum. Total RNA was extracted using RNeasy mini column (Qiagen). Using GeneChip Mouse Genome Array 430—2 in combination with GeneChip Hybridization, Wash and Stain Kit (Affymetrix), genome-wide expression analysis was carried out
Thereafter, RNA analysis was carried out as described above. Using GeneChip Mouse Genome Array 430—2 in combination with GeneChip Hybridization, Wash and Stain Kit (Affymetrix), genome-wide expression analysis was carried out.

[3] = tested on: LSD1 target genes such as PGC-1α in 3T3-L1 cells; conditions: 24 hours, 10^−4 M (clorgyline 10^−5 M)
Method: (12) Effects of Various Types of MAO Inhibitors on LSD1 Target Gene Group (FIG. 13)
Thereafter, RNA analysis was carried out. Expression analysis was carried out as described above. The expression level of PGC-1α or the like was standardized against the internal control gene 36B4. The value was given as a multiple of induction to a control treated with a vehicle.

3T3-L1 cells = test: Mitochondrial biosynthesis in 3T3-L1 cells by JC-1 staining and flow cytometry; assay type: cell-based, mouse; conditions: tranylcypromine 10^−3 or 10^−4 M, flow cytometry
Method: For the measurement of mitochondrial biosynthesis, cells were stained with a fluorescent dye JC-1 (Molecular Probes), and they were then analyzed by flow cytometry. JC-1 binds to the mitochondrial inner membrane to emit green fluorescence, and forms a red fluorescent aggregate, depending on membrane potential. Accordingly, the amount of mitochondria can be evaluated by detecting the green fluorescence, whereas the amount of mitochondrial electron transport can be evaluated by detecting the red fluorescence. […] Subsequently, the cells were allowed to come into contact with 5 μg/ml JC-1 in a medium at 37° C. for 15 minutes, and they were then suspended in PBS, followed by FACS analysis. The green fluorescence and the red fluorescence were detected by FL1 and FL2 settings, respectively. The value indicates a mean fluorescence intensity in each setting.

[4] = tested on: mPGC-1α promoter (pGL3-PGC-1α reporter) in 3T3-L1 cells; test: PGC-1α promoter activity by luciferase assay; assay type: cell-based, mouse; conditions: adipose differentiation induced for 24 hours
Method: (4) Analysis of PGC-1α Promoter Activity by Luciferase Assay (FIG. 5)
In order to construct pGL3-PGC-1α (PGC-1α/Luc) that is a luciferase reporter vector containing an mPGC-1α promoter, a 3707 bps promoter fragment from −3627 to +80 was amplified by PCR, using primers containing a MluI site and a XhoI site at the 5′-terminus and 3′-terminus thereof, respectively. Luciferase assay was carried out using Dual-Luciferase Reporter Assay System (Promega) in accordance with protocols included therewith. 3T3-L1 cells were co-transfected with the pGL3-PGC-1α reporter vector and a pRL-TK reference vector, and adipose differentiation was induced in the presence or absence of TC for 24 hours. Thereafter, luciferase activity was measured. When siRNA was applied, it was introduced 24 hours before transfection with the reporter.

[5] = tested on: LSD1 target genes including PGC-1α; conditions: high fat diet 6 weeks, 10 mg/kg intraperitoneally every other day, versus PBS
[6] = tested on: dimethylated H3K4 at LSD1 target gene promoters in 3T3-L1 cells; test: Chromatin immunoprecipitation (ChIP) assay for methylation of H3K4; assay type: cell-based, mouse
Method: (3) Chromatin Immunoprecipitation (ChIP) Assay for Detecting Methylation of 4th Lysine Residue of Histone H3 (H3K4) and Binding of LSD1 (FIG. 3 and FIG. 4)
A DNA-protein complex of 3T3-L1 cells was crosslinked using 1% formalin, and chromatin was then fragmented using a water tank ultrasonic processor. The chromatin fragments were incubated at 4° C. overnight in the presence of an antibody directed against methyl-H3K4, LSD1 or BHC80. Thereafter, the reaction product was recovered using agarose beads to which protein A and protein G had been bound. DNA was isolated, and real-time PCR was then carried out using the following primer set

[7] = tested on: LSD1 target genes such as PGC-1α in 3T3-L1 cells; test: Expression of LSD1 target genes under inhibition of enzymes associated with FAD synthesis (quantitative RT-PCR); assay type: cell-based, mouse; conditions: siRNA against FAD synthesis enzymes
Method: (8) Induction of Expression of LSD1 Target Genes by Inhibition of Enzyme Associated with FAD Synthesis (FIG. 9)
(§1) Using Trizol reagent (Invitrogen), total RNA was extracted from 3T3-L1 cells in which siRNA against riboflavin kinase (RFK) or FAD synthase (FADS) had been introduced. […] Using FAD assay kit (BioVision), the amount of FAD in the cells was measured under inhibition of FAD synthesis.

FAD in 3T3-L1 cells = test: Amount of FAD in cells (FAD assay kit); assay type: cell-based, mouse; conditions: FAD synthesis inhibited
Method: as §1

[8] = 3T3-L1 cells, 24 hours differentiation induction

N[C@@H]1C[C@H]1c1ccccc1 (racemic) [tranylcypromine, reference compound]
expression of genes such as PGC-1α (quantitative RT-PCR) [1]: Induction of the expression
expression of the LSD1 target candidates (microarray) [2, 8]: induced
activation of LSD1 target genes such as PGC-1α compared with other MAO inhibitors [3]: significant activation
amount of mitochondria (JC-1 green fluorescence, FL1) (3T3-L1 cells): stimulatory effect
mitochondrial membrane potential (JC-1 red fluorescence, FL2) (3T3-L1 cells): stimulatory effect
expression of luciferase reporter gene downstream of the PGC-1α promoter [4]: activated (disinhibited)
expression of LSD1 target genes including PGC-1α in fat around the testis [5]: increased
expression of LSD1 target genes including PGC-1α in the liver [5]: The same results as described above were obtained
amount of dimethylated H3K4 in other LSD1 target gene promoters such as PDK4 [6]: The same results were obtained
amount of dimethylated H3K4 in PGC-1α promoter ([6]; under treatment): increase in the amount of dimethylated H3K4 was detected

BHC80 siRNA: siRNA against LSD1 coupling factor BHC80: sense SEQ ID NO: 31, antisense SEQ ID NO: 32 (sense GUUCCAGAUACAGCCAUUGTT; antisense CAAUGGCUGUAUCUGGAACTT; sugars from the 5' end r19 d2, backbone not given here)
expression of genes such as PGC-1α (quantitative RT-PCR) [1]: Induction of the expression
expression of the LSD1 target candidates (microarray) [2, 8]: induced

FADS siRNA: siRNA against FAD synthase: sense SEQ ID NO: 35, antisense SEQ ID NO: 36 (sense GAGCCCUUGGAGGAAUGUCTT; antisense GACAUUCCUCCAAGGGCUCTT; sugars from the 5' end r19 d2, backbone not given here)
expression of LSD1 target genes such as PGC-1α [7]: activated
amount of FAD in a cell (FAD in 3T3-L1 cells): decreased

LSD1 siRNA: siRNA against LSD1: sense SEQ ID NO: 29, antisense SEQ ID NO: 30 (sense CACAAGGAAAGCUAGAAGATT; antisense UCUUCUAGCUUUCCUUGUGTT; sugars from the 5' end r19 d2, backbone not given here)
expression of genes such as PGC-1α (quantitative RT-PCR) [1]: Induction of the expression
number of target candidates induced to a higher level (2-fold or more) ([2]; differentiating 3T3-L1 cells, 24 hours in differentiation induction medium, microarray): 601
amount of mitochondria (JC-1 green fluorescence, FL1) (3T3-L1 cells): the same results were obtained
mitochondrial membrane potential (JC-1 red fluorescence, FL2) (3T3-L1 cells): the same results were obtained
expression of luciferase reporter gene downstream of the PGC-1α promoter [4]: activated (disinhibited)
amount of dimethylated H3K4 in PGC-1α gene promoter versus control [6]: approximately 2 fold
amount of dimethylated H3K4 in other LSD1 target gene promoters such as PDK4 [6]: The same results were obtained

RFK siRNA: siRNA against riboflavin kinase: sense SEQ ID NO: 33, antisense SEQ ID NO: 34 (sense UCUUCCAGCUGAUGUGUCUTT; antisense AGACACAUCAGCUGGAAGATT; sugars from the 5' end r19 d2, backbone not given here)
expression of a majority of LSD1 target genes (microarray) ([2]; 3T3-L1 cells, RFK knock-down, 24 hours differentiation induction): induced
expression of LSD1 target genes such as PGC-1α [7]: activated
amount of FAD in a cell (FAD in 3T3-L1 cells): decreased
